Legend:
[1] = tested on: patients with advanced solid tumours; experiment: Phase 1 Part A (dose escalation): safety, DLT, MTD; assay type: in vivo, human; settings: Part A
Experimental: The primary objectives of this phase 1 study were to evaluate the safety, tolerability, and MTD of once-weekly (Schedule I) and twice-weekly (Schedule II) dosing. Secondary objectives included evaluation of the PK profile of E6201. […] Toxicity was managed by dose interruption, reduction, and/or discontinuation. Only Cycle 1 adverse events (AEs) were evaluable as DLTs. Based on AEs reported at 480 mg/m^2 and 400 mg/m^2, the protocol was amended to include up to 6 additional toxicity-evaluable patients at 320 mg/m^2, to confirm this as the MTD. All ongoing patients could continue at 320 mg/m^2, regardless of initial starting dose.
Safety was assessed by monitoring AEs, serious AEs (SAEs), laboratory parameters, vital signs, 12-lead electrocardiograms (ECGs), Eastern Cooperative Oncology Group performance status, and symptom-directed physical and neurologic examination findings. AEs were graded by investigators based on the National Cancer Institute Common Terminology Criteria for Adverse Events, version 3.[16]

[2] = preclinical; cited from earlier work

CCNc1cc(O)c2c(c1)/C=C/C[C@H](O)[C@H](O)C(=O)/C=C\[C@@H](C)[C@H](C)OC2=O [E6201, (3S,4R,5Z,8S,9S,11E)-14-(ethylamino)-8,9,16-trihydroxy-3,4-dimethyl-3,4,9,19-tetrahydro-1H-2-benzoxacyclotetradecine-1,7 (8H)-dione]
Fatigue TEAE incidence, G≥3 ([1]; 320 mg/m^2 (n=7)): 1 (14.3) n (%)
Hypokalemia TEAE incidence, All grades ([1]; 320 mg/m^2 (n=7)): 2 (28.6) n (%)
Hypokalemia TEAE incidence, G≥3 ([1]; 320 mg/m^2 (n=7)): 0 n (%)
Nausea TEAE incidence, All grades ([1]; 320 mg/m^2 (n=7)): 5 (71.4) n (%)
Nausea TEAE incidence, G≥3 ([1]; 320 mg/m^2 (n=7)): 1 (14.3) n (%)
Patients with a DLT (QTcF increase from baseline > 60 ms) and grade 2 CNS toxicities ([1]; 320 mg/m^2 (n=7)): One
Peripheral edema TEAE incidence, All grades ([1]; 320 mg/m^2 (n=7)): 1 (14.3) n (%)
Peripheral edema TEAE incidence, G≥3 ([1]; 320 mg/m^2 (n=7)): 1 (14.3) n (%)
Vomiting TEAE incidence, All grades ([1]; 320 mg/m^2 (n=7)): 4 (57.1) n (%)
Vomiting TEAE incidence, G≥3 ([1]; 320 mg/m^2 (n=7)): 0 n (%)
Patients with grade 3 bradycardia (unrelated to E6201) ([1]; 320 mg/m^2 group): one
Deaths (abnormal hepatic function, possibly related to E6201) ([1]; 320 mg/m^2 group, post-Cycle 1): 1 patient
Patients with CNS toxicity (grade 1 dizziness) treated conservatively as a DLT ([1]; 400 mg/m^2): 1 patient
Abdominal pain TEAE incidence, All grades ([1]; 400 mg/m^2 (n=1)): 0 n (%)
Abdominal pain TEAE incidence, G≥3 ([1]; 400 mg/m^2 (n=1)): 0 n (%)
Constipation TEAE incidence, All grades ([1]; 400 mg/m^2 (n=1)): 0 n (%)
Constipation TEAE incidence, G≥3 ([1]; 400 mg/m^2 (n=1)): 0 n (%)
Decreased appetite TEAE incidence, All grades ([1]; 400 mg/m^2 (n=1)): 0 n (%)
Decreased appetite TEAE incidence, G≥3 ([1]; 400 mg/m^2 (n=1)): 0 n (%)
Fatigue TEAE incidence, All grades ([1]; 400 mg/m^2 (n=1)): 0 n (%)
Fatigue TEAE incidence, G≥3 ([1]; 400 mg/m^2 (n=1)): 0 n (%)
Hypokalemia TEAE incidence, All grades ([1]; 400 mg/m^2 (n=1)): 1 (100) n (%)
Hypokalemia TEAE incidence, G≥3 ([1]; 400 mg/m^2 (n=1)): 1 (100) n (%)
Nausea TEAE incidence, All grades ([1]; 400 mg/m^2 (n=1)): 0 n (%)
Nausea TEAE incidence, G≥3 ([1]; 400 mg/m^2 (n=1)): 0 n (%)
Peripheral edema TEAE incidence, All grades ([1]; 400 mg/m^2 (n=1)): 0 n (%)
Peripheral edema TEAE incidence, G≥3 ([1]; 400 mg/m^2 (n=1)): 0 n (%)
Vomiting TEAE incidence, All grades ([1]; 400 mg/m^2 (n=1)): 0 n (%)
Vomiting TEAE incidence, G≥3 ([1]; 400 mg/m^2 (n=1)): 0 n (%)
Abdominal pain TEAE incidence, All grades ([1]; 480 mg/m^2 (n=4)): 1 (25.0) n (%)
Abdominal pain TEAE incidence, G≥3 ([1]; 480 mg/m^2 (n=4)): 0 n (%)
Constipation TEAE incidence, All grades ([1]; 480 mg/m^2 (n=4)): 2 (50.0) n (%)
Constipation TEAE incidence, G≥3 ([1]; 480 mg/m^2 (n=4)): 0 n (%)
Decreased appetite TEAE incidence, All grades ([1]; 480 mg/m^2 (n=4)): 1 (25.0) n (%)
Decreased appetite TEAE incidence, G≥3 ([1]; 480 mg/m^2 (n=4)): 0 n (%)
Fatigue TEAE incidence, All grades ([1]; 480 mg/m^2 (n=4)): 2 (50.0) n (%)
Fatigue TEAE incidence, G≥3 ([1]; 480 mg/m^2 (n=4)): 0 n (%)
Hypokalemia TEAE incidence, All grades ([1]; 480 mg/m^2 (n=4)): 2 (50.0) n (%)
Hypokalemia TEAE incidence, G≥3 ([1]; 480 mg/m^2 (n=4)): 0 n (%)
Nausea TEAE incidence, All grades ([1]; 480 mg/m^2 (n=4)): 1 (25.0) n (%)
Nausea TEAE incidence, G≥3 ([1]; 480 mg/m^2 (n=4)): 0 n (%)
Peripheral edema TEAE incidence, All grades ([1]; 480 mg/m^2 (n=4)): 0 n (%)
Peripheral edema TEAE incidence, G≥3 ([1]; 480 mg/m^2 (n=4)): 0 n (%)
Vomiting TEAE incidence, All grades ([1]; 480 mg/m^2 (n=4)): 1 (25.0) n (%)
Vomiting TEAE incidence, G≥3 ([1]; 480 mg/m^2 (n=4)): 0 n (%)
QTcF prolongation to >500 ms, patients ([1]; 480 mg/m^2, Cycle 2): one
Patients with DLTs ([1]; 480 mg/m^2, QTcF > 500 ms, grade 4 confusion, QTcF increase > 60 ms): 3 patients
Grade 3/4 ECG QT prolonged, patients ([1]; 2 patients): 8.0%
Grade 3/4 abdominal pain, patients ([1]; 2 patients): 8.0%
Grade 3/4 hyperbilirubinemia, patients ([1]; 2 patients): 8.0%
Grade 3/4 syncope, patients ([1]; 2 patients): 8.0%
Treatment-emergent SAEs other than death, patients ([1]; 8 patients): 32.0%
Grade 3/4 TEAEs, patients ([1]; 11 patients): 44.0%
QT prolongation reported as an AE (Grade 2/3, DLT, probably related), patients ([1]; 30-min infusion, three patients): 12.0%
Patients with ≥1 TEAE assessed as treatment-related ([1]; Eleven patients): 44.0%
Abdominal pain TEAE incidence, All grades ([1]; Total (N=25)): 6 (24.0) n (%)
Abdominal pain TEAE incidence, G≥3 ([1]; Total (N=25)): 2 (8.0) n (%)
Constipation TEAE incidence, All grades ([1]; Total (N=25)): 7 (28.0) n (%)
Constipation TEAE incidence, G≥3 ([1]; Total (N=25)): 0 n (%)
Decreased appetite TEAE incidence, All grades ([1]; Total (N=25)): 5 (20.0) n (%)
Decreased appetite TEAE incidence, G≥3 ([1]; Total (N=25)): 1 (4.0) n (%)
Fatigue TEAE incidence, All grades ([1]; Total (N=25)): 7 (28.0) n (%)
Fatigue TEAE incidence, G≥3 ([1]; Total (N=25)): 1 (4.0) n (%)
Hypokalemia TEAE incidence, All grades ([1]; Total (N=25)): 7 (28.0) n (%)
Hypokalemia TEAE incidence, G≥3 ([1]; Total (N=25)): 1 (4.0) n (%)
Nausea TEAE incidence, All grades ([1]; Total (N=25)): 9 (36.0) n (%)
Nausea TEAE incidence, G≥3 ([1]; Total (N=25)): 1 (4.0) n (%)
Peripheral edema TEAE incidence, All grades ([1]; Total (N=25)): 4 (16.0) n (%)
Peripheral edema TEAE incidence, G≥3 ([1]; Total (N=25)): 1 (4.0) n (%)
Vomiting TEAE incidence, All grades ([1]; Total (N=25)): 7 (28.0) n (%)
Vomiting TEAE incidence, G≥3 ([1]; Total (N=25)): 0 n (%)
QTcF increase of 30–60 ms from baseline, patients ([1]; five patients): 20.0%
QTcF prolongation to 450–500 ms, patients ([1]; five patients across dose groups): 20.0%
QTcF increase of >60 ms from baseline, patients ([1]; two patients): 8.0%
Maximum-tolerated dose (MTD) ([1]; 30-min IV infusion once-weekly for 3 weeks of a 28-day cycle): 320 mg/m^2
t1/2 of E6201 [2]: 3 to 6 h
